Experimental data as given in ChEMBL document CHEMBL1201862, “PubChem BioAssay data set” (2004).
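Test compounds were applied to cells in 96-well plates for 48 hours at 5 doses. GI50 is the concentration that inhibits growth by half.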 The source made the active and inactive calls. Rule as the data show it: active = GI50 up to about 1.1 µM and inactive = higher.

Legend:
Test in all cases: NCI tumour cell line growth inhibition, 48 h
[1] = test system: 786-0
[2] = test system: A498
[3] = test system: A549
[4] = test system: ACHN
[5] = test system: BT-549
[6] = test system: CAKI-1
[7] = test system: CCRF-CEM
[8] = test system: COLO 205
[9] = test system: DU-145
[10] = test system: EKVX
[11] = test system: HCC 2998
[12] = test system: HCT-116
[13] = test system: HL-60
[14] = test system: HOP-62
[15] = test system: HOP-92
[16] = test system: HT-29
[17] = test system: Hs-578T
[18] = test system: IGROV-1
[19] = test system: K562
[20] = test system: KM12
[21] = test system: M14
[22] = test system: MCF7
[23] = test system: MDA-MB-231
[24] = test system: MDA-MB-435
[25] = test system: MDA-N
[26] = test system: MOLT-4
[27] = test system: Malme-3M
[28] = test system: NCI-H226
[29] = test system: NCI-H23
[30] = test system: NCI-H460
[31] = test system: NCI-H522
[32] = test system: OVCAR-3
[33] = test system: OVCAR-4
[34] = test system: OVCAR-5
[35] = test system: OVCAR-8
[36] = test system: PC-3
[37] = test system: RXF 393
[38] = test system: SF-268
[39] = test system: SF-295
[40] = test system: SF-539
[41] = test system: SK-MEL-28
[42] = test system: SK-MEL-5
[43] = test system: SK-OV-3
[44] = test system: SN12C
[45] = test system: SNB-19
[46] = test system: SNB-75
[47] = test system: SR
[48] = test system: SW-620
[49] = test system: T47D
[50] = test system: TK-10
[51] = test system: U-251
[52] = test system: UACC-257
[53] = test system: UACC-62
[54] = test system: UO-31
[55] = test system: HCT-15
[56] = test system: LOX IMVI
[57] = test system: NCI/ADR-RES
[58] = test system: RPMI-8226
[59] = test system: SK-MEL-2

Q: How did the GI50 [1] turn out when `CC1(C)C2CCC1(C)C(NC(=O)COCCOCC(N)=O)C2` (centres undefined) was run?
A: Its GI50 is > 100 µM (inactive).

Q: What about the GI50 [2] of the same compound?
A: Its GI50 is > 100 µM (inactive).

Q: What about the GI50 [3] of the same compound?
A: The GI50 was > 100 µM (inactive).

Q: What about the GI50 [4] of the same compound?
A: The GI50 was > 100 µM (inactive).

Q: And the GI50 [5]?
A: The GI50 was > 100 µM (inactive).

Q: What about the GI50 [6] of the same compound?
A: Its GI50 is > 100 µM (inactive).

Q: And the GI50 [7]?
A: The GI50 was > 100 µM (inactive).

Q: What about the GI50 [8] of the same compound?
A: Its GI50 is 94.8 µM (inactive).

Q: What about the GI50 [9] of the same compound?
A: The GI50 was > 100 µM (inactive).

Q: What about the GI50 [10] of the same compound?
A: Its GI50 is > 100 µM (inactive).

Q: And the GI50 [11]?
A: The GI50 was 45 µM (inactive).

Q: What about the GI50 [12] of the same compound?
A: The GI50 was > 100 µM (inactive).

Q: What about the GI50 [13] of the same compound?
A: The GI50 was 56.2 µM (inactive).

Q: What about the GI50 [14] of the same compound?
A: The GI50 was > 100 µM (inactive).

Q: What about the GI50 [15] of the same compound?
A: The GI50 was > 100 µM (inactive).

Q: And the GI50 [16]?
A: The GI50 was > 100 µM (inactive).

Q: What about the GI50 [17] of the same compound?
A: The GI50 was > 100 µM (inactive).

Q: What about the GI50 [18] of the same compound?
A: The GI50 was > 100 µM (inactive).

Q: And the GI50 [19]?
A: The GI50 was 32.1 µM (inactive).

Q: What about the GI50 [20] of the same compound?
A: Its GI50 is > 100 µM (inactive).

Q: What about the GI50 [21] of the same compound?
A: Its GI50 is > 100 µM (inactive).

Q: And the GI50 [22]?
A: The GI50 was > 100 µM (inactive).

Q: What about the GI50 [23] of the same compound?
A: Its GI50 is > 100 µM (inactive).

Q: What about the GI50 [24] of the same compound?
A: The GI50 was > 100 µM (inactive).

Q: What about the GI50 [25] of the same compound?
A: The GI50 was > 100 µM (inactive).

Q: And the GI50 [26]?
A: Its GI50 is > 100 µM (inactive).

Q: And the GI50 [27]?
A: The GI50 was > 100 µM (inactive).

Q: What about the GI50 [28] of the same compound?
A: The GI50 was > 100 µM (inactive).

Q: And the GI50 [29]?
A: The GI50 was > 100 µM (inactive).

Q: What about the GI50 [30] of the same compound?
A: The GI50 was > 100 µM (inactive).

Q: And the GI50 [31]?
A: The GI50 was > 100 µM (inactive).

Q: What about the GI50 [32] of the same compound?
A: The GI50 was > 100 µM (inactive).

Q: What about the GI50 [33] of the same compound?
A: Its GI50 is > 100 µM (inactive).

Q: And the GI50 [34]?
A: Its GI50 is > 100 µM (inactive).

Q: And the GI50 [35]?
A: The GI50 was > 100 µM (inactive).

Q: What about the GI50 [36] of the same compound?
A: The GI50 was > 100 µM (inactive).

Q: And the GI50 [37]?
A: The GI50 was 63.7 µM (inactive).

Q: And the GI50 [38]?
A: Its GI50 is > 100 µM (inactive).

Q: What about the GI50 [39] of the same compound?
A: The GI50 was > 100 µM (inactive).

Q: What about the GI50 [40] of the same compound?
A: The GI50 was > 100 µM (inactive).

Q: What about the GI50 [41] of the same compound?
A: Its GI50 is > 100 µM (inactive).

Q: And the GI50 [42]?
A: Its GI50 is > 100 µM (inactive).

Q: And the GI50 [43]?
A: Its GI50 is > 100 µM (inactive).

Q: And the GI50 [44]?
A: The GI50 was > 100 µM (inactive).

Q: And the GI50 [45]?
A: The GI50 was > 100 µM (inactive).

Q: And the GI50 [46]?
A: Its GI50 is > 100 µM (inactive).

Q: What about the GI50 [47] of the same compound?
A: Its GI50 is 31.1 µM (inactive).

Q: What about the GI50 [48] of the same compound?
A: The GI50 was > 100 µM (inactive).

Q: And the GI50 [49]?
A: The GI50 was > 100 µM (inactive).

Q: And the GI50 [50]?
A: Its GI50 is > 100 µM (inactive).

Q: What about the GI50 [51] of the same compound?
A: The GI50 was > 100 µM (inactive).

Q: What about the GI50 [52] of the same compound?
A: The GI50 was > 100 µM (inactive).

Q: And the GI50 [53]?
A: Its GI50 is > 100 µM (inactive).

Q: What about the GI50 [54] of the same compound?
A: The GI50 was > 100 µM (inactive).

Q: How did the GI50 [1] turn out when `Clc1ccc(/C=N/c2ccc(Oc3ccc(Cl)cc3)c(Cl)c2)cc1` was run?
A: The GI50 was 17.9 µM (inactive).

Q: What about the GI50 [3] of the same compound?
A: The GI50 was 22.3 µM (inactive).

Q: What about the GI50 [4] of the same compound?
A: Its GI50 is 34.1 µM (inactive).

Q: And the GI50 [5]?
A: The GI50 was 21.7 µM (inactive).

Q: And the GI50 [6]?
A: Its GI50 is 6.41 µM (inactive).

Q: And the GI50 [7]?
A: Its GI50 is 15.8 µM (inactive).

Q: What about the GI50 [8] of the same compound?
A: The GI50 was 21.6 µM (inactive).

Q: And the GI50 [9]?
A: Its GI50 is 30.8 µM (inactive).

Q: And the GI50 [10]?
A: Its GI50 is 27.8 µM (inactive).

Q: And the GI50 [11]?
A: The GI50 was 21.5 µM (inactive).

Q: And the GI50 [12]?
A: Its GI50 is 17.9 µM (inactive).

Q: And the GI50 [55]?
A: Its GI50 is 21.8 µM.

Q: What about the GI50 [13] of the same compound?
A: Its GI50 is 23.3 µM (inactive).

Q: What about the GI50 [14] of the same compound?
A: The GI50 was 19.4 µM (inactive).

Q: And the GI50 [15]?
A: Its GI50 is 19.4 µM (inactive).

Q: What about the GI50 [16] of the same compound?
A: Its GI50 is 23.7 µM (inactive).

Q: What about the GI50 [17] of the same compound?
A: Its GI50 is 21.5 µM (inactive).

Q: And the GI50 [18]?
A: Its GI50 is 38.5 µM (inactive).

Q: And the GI50 [20]?
A: Its GI50 is 24.8 µM (inactive).

Q: And the GI50 [56]?
A: Its GI50 is 18.8 µM (inactive).

Q: What about the GI50 [21] of the same compound?
A: The GI50 was 21.1 µM (inactive).

Q: What about the GI50 [22] of the same compound?
A: The GI50 was 30.8 µM (inactive).

Q: And the GI50 [23]?
A: The GI50 was 22 µM (inactive).

Q: What about the GI50 [24] of the same compound?
A: Its GI50 is 29.7 µM (inactive).

Q: What about the GI50 [25] of the same compound?
A: Its GI50 is 19.1 µM (inactive).

Q: What about the GI50 [26] of the same compound?
A: The GI50 was 25.5 µM (inactive).

Q: What about the GI50 [27] of the same compound?
A: Its GI50 is 20.2 µM (inactive).

Q: And the GI50 [28]?
A: The GI50 was 35.3 µM (inactive).

Q: And the GI50 [29]?
A: The GI50 was 23.5 µM (inactive).

Q: And the GI50 [30]?
A: Its GI50 is 21.5 µM (inactive).

Q: What about the GI50 [31] of the same compound?
A: The GI50 was 14.3 µM (inactive).

Q: What about the GI50 [57] of the same compound?
A: The GI50 was 20.8 µM (inactive).

Q: And the GI50 [32]?
A: Its GI50 is 16.9 µM (inactive).

Q: And the GI50 [33]?
A: Its GI50 is 25.3 µM (inactive).

Q: And the GI50 [34]?
A: The GI50 was > 100 µM (inactive).

Q: What about the GI50 [35] of the same compound?
A: Its GI50 is 29.4 µM (inactive).

Q: What about the GI50 [36] of the same compound?
A: Its GI50 is 22.1 µM (inactive).

Q: What about the GI50 [58] of the same compound?
A: The GI50 was 28.4 µM (inactive).

Q: And the GI50 [38]?
A: The GI50 was 17.5 µM (inactive).

Q: And the GI50 [39]?
A: Its GI50 is 18.8 µM (inactive).

Q: What about the GI50 [40] of the same compound?
A: Its GI50 is 17.2 µM (inactive).

Q: And the GI50 [41]?
A: The GI50 was 23.6 µM (inactive).

Q: And the GI50 [59]?
A: The GI50 was 22.1 µM (inactive).

Q: What about the GI50 [42] of the same compound?
A: Its GI50 is 22.3 µM (inactive).

Q: And the GI50 [43]?
A: Its GI50 is 27 µM (inactive).

Q: What about the GI50 [44] of the same compound?
A: The GI50 was 19.5 µM (inactive).

Q: And the GI50 [45]?
A: The GI50 was 23 µM (inactive).

Q: What about the GI50 [46] of the same compound?
A: The GI50 was 22.5 µM (inactive).

Q: What about the GI50 [48] of the same compound?
A: The GI50 was 31 µM (inactive).

Q: And the GI50 [49]?
A: Its GI50 is 19.5 µM (inactive).

Q: And the GI50 [50]?
A: Its GI50 is 50.7 µM (inactive).

Q: And the GI50 [51]?
A: Its GI50 is 23.9 µM (inactive).

Q: And the GI50 [52]?
A: The GI50 was 30.9 µM (inactive).

Q: And the GI50 [53]?
A: Its GI50 is 19.8 µM (inactive).

Q: And the GI50 [54]?
A: Its GI50 is 11.5 µM (inactive).
